Assay results as given in patent publication US9914722B2, “Compounds for treating spinal muscular atrophy” (PTC Therapeutics Inc., priority 2012, dated 2018).

Tested on: SMN2 full length and Δ7 mRNA
Assay: Endogenous SMN2 mRNA RT-qPCR splicing assay in cultured cells
Type: cell-based, human
Conditions: 24 hr, FIG. 4
Method: Endogenous SMN2 mRNA RT-qPCR Splicing Assay in Cultured Cells
The reverse transcription-quantitative PCR-based (RT-qPCR) assay is used to quantify the levels of the SMN2 full length and Δ7 mRNA in primary cells and cell lines containing the SMN2 gene treated with a test compound.
Protocol. GM03813 SMA patient cells (5,000 cells/well) are seeded in 200 μL, of cell culture medium (DMEM plus 10% FBS) in 96-well flat-bottom plates and the plate is immediately swirled to ensure proper dispersal of cells, forming an even monolayer of cells. Cells are allowed to attach for at least 4-6 hrs. Test compounds are serially diluted 3.16-fold in 100% DMSO to generate a 7-point concentration curve. A solution of test compound (1 μL, 200× in DMSO) is added to each test well and 1 μL, DMSO is added to each control well. The plate is incubated for 24 hrs in a cell culture incubator (37° C., 5% CO2, 100% relative humidity). The cells are then lysed in Cells-To-Ct lysis buffer and the lysate is stored at −80° C.
SMN2-specific spliced products and GAPDH mRNA are identified using the following primers and probes in Table 5. […] Since the SMA patient cells used in Example 3 contain only the SMN2 gene, RT-qPCR can quantify only SMN2 full-length and Δ7 mRNA. […]
The increase of SMN2 FL and decrease in SMN2 Δ7 mRNA relative to those in cells treated with vehicle control are determined from real-time PCR data using a modified ΔΔCt method (as described in Livak and Schmittgen, Methods, 2001, 25:402-8). The amplification efficiency (E) is calculated from the slope of the amplification curve for SMN2 FL, SMN2 Δ7, and GAPDH individually. The abundance of SMN2 FL, SMN2 Δ7 and GAPDH mRNA are then calculated as (1+E)^−Ct, where Ct is the threshold value for each amplicon. […]

[1] = GM03813 Type 1 SMA patient fibroblasts, increasing concentrations

COc1ccc(-c2cc(=O)c3cc(N4CCN[C@@H](C)C4)ccc3o2)cc1F [Cpd 38, 2-(3-fluoro-4-methoxyphenyl)-6-[(3S)-3-methylpiperazin-1-yl]-4H-chromen-4-one]
SMN2 FL mRNA relative to vehicle [1]: progressively more SMN2 FL mRNA | SMN2 Δ7 mRNA relative to vehicle [1]: less SMN2 Δ7 mRNA | SMN2 alternative splicing (Type 1 SMA patient fibroblasts, rising concentrations): correction of SMN2 alternative splicing
